# Measurements reported in patent US6689777B2 (Kenneth S. Warren Institute, priority 2001, dated 2004).
# Legend:
# [1] = tested on: synthetic hemozoin; experiment: Depolymerization of synthetic hemozoin in vitro; assay type: biochemical; conditions: Table 3; 50 mM test compound, acetate buffer pH 5.0, 37° C., 16 hours
# Method: This activity is evaluated by incubating a suspension of monomer-free hemozoin at 37° C. with compounds of the present invention for 16 hours. After incubation, hemozoin is separated from any solubilized heme and soluble heme oligomers, the oligomers depolymerized, and the heme present in the supernatants determined.
# The synthesis of synthetic hemozoin is carried out as previously described (26). In brief, 60 μmoles of hematin was dissolved in 8 ml of 0.1N NaOH. Following dissolution 49 mmoles of glacial acetic acid was added and the suspension heated at 70° C. overnight. The precipitate was then washed extensively with LPS-free water. In order to remove unreacted heme the precipitate was extracted with 0.1M sodium bicarbonate (pH 9.1) for three hours. The remaining insoluble material was recovered by centrifugation, resuspended in EtOH and transferred to sterile Eppendorf tubes. The material was washed several times in EtOH and finally resuspended in LPS-free double-distilled H2O. The hemozoin preparation was then tested for endotoxin by using the Limulus Amebocyte Lysate test following manufacturer's instructions. Although the preparation of LPS-free hemozoin from native or synthetic sources is not critical for in vitro depolymerization studies, it is critical for studies involving monocytes and animals (see Examples below). Small amounts of LPS can evoke a considerable cytokine response and interfere with interpretation of results. The amount of heme in the final product was determined from a small aliquot using the pyridine-hemochrome method as previously described (26). The preparations are stored at 4° C. until used.
# A suspension of monomer-free hemozoin (equivalent to 2 mM free heme) as prepared above was incubated at 37° C. with […] test compound in total volume of 500 μl in acetate buffer (pH: 5.0) in siliconized Eppendorf tubes (Brinkmann Instruments, Westbury, N.Y.) for 16 hours. A control sample containing distilled H2O instead of hemozoin was included. The samples were centrifuged at 14,000 rpm (Eppendorf centrifuge model 5415C, Brinkmann Instruments, Westbury, N.Y.) for 20 min; then 225 μl supernatant was diluted in 175 μl acetate buffer (pH 5.0). Another 225 μl was added to 175 μl 0.5 M NaOH to dissolve possible oligomeric depolymerization products to monomers. Half of the pellet was washed twice for 2.5 hr in 200 μl 2.5% SDS (v/v) in dH2O, the other half was washed twice in 200 μl HCO3^− buffer (pH: 9.1). Both sample supernatants and SDS and HCO3^− buffer supernatants were centrifuged 14,000 rpm for 20 min. and supernatants were added to 10 μl sodium dithionite (200 mg/ml dH2O) to reduce the heme monomers in solution to Fe^2+. All samples were measured in triplicate at 540 nm (Model UV1601 spectrophotometer, Shimradzu Corp, Columbia, Md.). The OD obtained from the blind sample was subtracted from the OD of the hemozoin containing sample.
# [2] = tested on: hemozoin ingested by human monocytes; experiment: Breakdown of macrophage-ingested hemozoin; assay type: cell-based; conditions: 25 μM compound, FIG. 1
# Method: A further evaluation of compounds was performed for activity against pathophysiological effects of hemozoin on the host, using hemozoin-laden macrophages in culture. Freshly-isolated human monocytes were suspended in medium and hemozoin at a concentration reflective of the amount of hemozoin released into circulation during schizogony. In order to maximize contact between hemozoin and monocytes, the cell preparations were centrifuged for 5 sec at 150×g. Ingestion of hemozoin is essentially complete by two hours. Cells were then washed, plated and kept in a humidified incubator. The test compounds of the present invention were added to the wells at concentrations ranging from 0 to 20 mM. Macrophage viability was determined by direct microscopic examination (gross morphology and detachment from the well), trypan blue exclusion method, and LDH release. […] At various times post-treatment (1 hour; 3 hours), cells were lysed, extensively washed and spun down (2500×g) to pellet any cellular components including hemozoin. The lysates were then treated with alkali to dissolve hemozoin to give monomeric heme (35). Monomeric heme was quantified as described above.
# Human monocytes were freshly isolated from a buffy coat from a normal donor using Percoll gradients. […] Cells were solubilized at various time points and hemozoin content determined by luminol-elicited chemiluminescence.
# [3] = tested on: P. falciparum chloroquine resistant strain (CQR); experiment: P. falciparum growth in culture, chloroquine resistant strain ([3H]-hypoxanthine incorporation); assay type: cell-based; conditions: Plasmodium falciparum, Table 3, read-out: IC50 vs. P. falc. in CQR
# Method: To determine the effectiveness of the compounds of the present invention against the erythrocytic stage of the malarial parasite, P. falciparum was grown in human erythrocyte suspensions and maintained at 37° C. in candle jars according to the method of Trager and Jensen (15,16). Parasites were stage-synchronized by incubating mainly ring-stage infected erythrocytes in 5% sorbitol for 10 minutes at room temperature (17). Cultures undergo one growth cycle (2 days) before use. Strains used include the chloroquine sensitive strains D10 and HB3, and the chloroquine resistant isolates Dd2 and FCR.
# (§1) Parasite growth was determined by measuring incorporation of [^3H]-hypoxanthine into the nucleic acids of the parasite (18). Effects of the compounds of the present invention on parasite growth was determined by measuring the reduction in incorporation of radiolabel as compared to controls. […] After 18 h the plates are harvested onto glass fiber filter 96 well plates using a cell harvester, dried, and the amount of radioactivity is determined. […]
# as §1, with “as previously described (23).” for “(18).”, “The,” for “After 18 h the plates are harvested onto glass fiber filter 96 well plates using a cell harvester, dried, and the”, “was” for “is”
# [4] = tested on: P. falciparum; experiment: P. falciparum growth in culture ([3H]-hypoxanthine incorporation); assay type: cell-based; conditions: Plasmodium falciparum, Table 3, naphthothiazolium salts, in culture, read-out: IC50 vs. P. falc.
# [5] = tested on: freshly isolated human monocytes; experiment: Spontaneous and PMA-elicited oxidative burst by freshly isolated human monocytes; assay type: cell-based; conditions: compound 25 uM, PMA 200 nM
# Method: Furthermore, Arese and colleagues have data supporting the role of the ingested hemozoin in macrophage dysfunction. Therefore, the compounds of the present invention were evaluated to assess their ability to induce recovery of macrophage effector functions induced by hemozoin. Initially, the effect of the compounds of the present invention were evaluated on spontaneous and PMA-elicited oxidative burst by freshly isolated human monocytes. As will be elaborated upon in the Examples below, freshly isolated human monocytes were plated at 5×10^6 cells/ml, and allowed to equilibrate to 37° C. for 1 h. Compounds of the instant invention were added at a final concentration of 25 uM and PMA added to 200 nM final concentration. Cell suspension aliquots were taken at 30, 60, and 120 minutes, and 14 hours. The oxidative burst was measured by luminol-elicited chemiluminescence for 30 sec., and data expressed as counts per 0.5×10^6 cells.
IC50 [3],IC50 [4],Structure (SMILES),% depol. hemoz. [1],hemozoin content of monocytes after phagocytosis of hemozoin (luminol-elicited chemiluminescence) [2],oxidative burst (luminol-elicited chemiluminescence) [5]
75 nM,75 nM,"Cc1c(O)c2ccccc2c2c1sc(NC1CCCCC1)[n+]2CCCN(C)C.Cl.[Cl-] [2-(cyclohexylimino)-1,2-dihydro-4-methyl-1-[3-(dimethylamino)propyl]naphtho[1,2-d]thiazol-5-ol dihydrochloride]",2.2%,hemozoin-dissolving ability,strong inhibitor
500 nM,75 nM,"Cc1c(O)c2ccccc2c2c1sc(NCCCN1CCN(C)CC1)[n+]2C.[Cl-] [1,2-dihydro-1,4-dimethyl-2-[[3-(4-methyl-1-piperazinyl)propyl]imino]naphtho[1,2-d]thiazol-5-ol trihydrochloride]",2.0%,–,–
